In paper PMC3626250, “Effects of Borneol on Pharmacokinetics and Tissue Distribution of Notoginsenoside R1 and Ginsenosides Rg1 and Re in Panax notoginseng in Rabbits” (Journal of Analytical Methods in Chemistry, 2013):
Read-outs that look alike come from different tables or passages of the source. Marks after values point to notes of the source that are not given here.

How the values were obtained:
[1] = Pharmacokinetics study in rabbits after oral Panax notoginseng extract with or without Borneol (plasma, SPE-HPLC-MS); assay type: in vivo, New Zealand rabbits; settings: for Cmax / Tmax / CL/F / half-life / AUC(0-inf) / AUC(0-t): New Zealand, rabbit, plasma; for CL/F: read-out: CL/F; for half-life: read-out: t 1/2β; for AUC(0-inf) / AUC(0-t): po
Procedure: Liquid chromatography was carried out on an Agilent 1100 HPLC system with an auto sampler, a quaternary pump and a vacuum degasser (Waldoboro, Frankfurt, Germany). Operations were controlled by Agilent Chemstation 4.2 software (Littleforts, Philadelphia, USA). Separations were achieved on a reversed-phase HPLC column (Zorbax SB-C18 150 × 2.1 mm, 5.0 μm particle size). A solution of acetonitrile and water (V : V, 20 : 80) with 0.1% (V : V) ammonium formate was used as the mobile phase. The flow rate was set at 0.3 mL·min^−1 and the column temperature was 25°C. Under these conditions, NGR1, GRg1, and GRe in plasma samples were separated efficiently without any interferences.
MS^n detection was performed on an Agilent SL trap MS system (Waldoboro, Frankfurt, Germany). The ion source-dependent (electrospray ionization) conditions were the same for all analyses with a spraying voltage of −4500 V in the negative ion mode. The pressure of the nebulizing gas (nitrogen) was set at 35 p.s.i. The flow rate of the drying gas (nitrogen) was set at 7.0 L·min^−1 with the temperature of 325°C. The collision gas (He) for the MS^n mode at trap was set at flow of 4 (instrument unit). The voltage of the capillary was set at 4000 V, and its end plate offset was −500 V. Scan range was from 500 to 1500 m/z.
(§1) Frozen plasma and tissue samples were thawed in a water bath at 37°C and were then vortexed followed by centrifuging at 5000 r·min^−1 for 5 min. An aliquot of 1.0 mL of the supernatant from each sample was loaded onto C18 Bond Elute Solid phase extraction (SPE) cartridges (1000 mg, 1 cc reservoir, Varian, Harbor City, CA, USA) pretreated with 2.0 mL hexane, isopropanol, methanol, and water, sequentially. The SPE cartridges were then washed with 1.0 mL water, 20% methanol/water solution, 40% methanol/water solution, and 60% methanol/water solution, sequentially. Finally, analytes were eluted twice with 1.0 mL of 70% methanol/water solution. The eluant was evaporated to dryness under nitrogen. The residues were then reconstituted in 1.0 mL mobile phase. An aliquot of 10 μL was injected into the LC-MS system.
Eighteen rabbits were randomly divided into three groups of 6 subjects and were orally given 3.0 mL·kg^−1 normal saline, 3.0 mL·kg^−1 Panax notoginseng extract, and 3.0 mL·kg^−1 Panax notoginseng extract combined with Borneol, respectively. Plasma samples were collected in heparinized tubes from the central ear artery at 0.0, 5.0, 10.0, 20.0, 30.0, 45.0, 60.0, 75.0, 90.0, 120.0, 180.0, 300.0 and 480.0 min after dose. After each sampling, the same volume of 0.9% saline solution was injected from the ear vein to compensate the loss of blood. The plasma obtained was frozen at −70°C for storage and was processed prior to analysis with the proposed method as described in Section 2.6.
Statistical analysis of the biological data was performed using the Student's t-test. The drug analysis system 2.0 (DAS 2.0, T.C.M., Shanghai, China) was used to calculate the pharmacokinetic parameters, such as the area under curve (AUC), the maximum plasma concentration (C max), the time needed to reach the maximum plasma concentration (t max) and the half-life of absorption, and distribution and elimination (t 1/2Ka, t 1/2α, t 1/2β).

[2] = Tissue distribution study in rabbits after oral Panax notoginseng extract with or without Borneol; assay type: in vivo, New Zealand rabbits; settings: New Zealand, rabbit; for Kp at 1 h: oral, Borneol combined with Panax notoginseng; for concentration at 0.5 h / concentration at 1 h / concentration at 3 h: po; for concentration at 3 h: 3 mL·kg^−1, 3.0 h
Procedure: as §1
One group of rabbits (n = 18) was orally administered a dose of 3.0 mL·kg^−1 Panax notoginseng extract, while another group of rabbits (n = 18) was orally given 3.0 mL·kg^−1 Panax notoginseng extract combined with Borneol. At 0.5, 1, and 3 h after administration, blood samples were collected from the central ear artery of six rabbits from each group, and the heart, liver, lung, kidney, and brain were immediately removed after animals were sacrificed by decapitation. An accurately weighed amount of tissue (1 g) was collected to be rinsed, dried, minced, and homogenized (400 r·min^−1) in normal saline (1.5 mL). All of the samples were stored at −70°C and were processed prior to analysis with the proposed method as described in Section 2.6.

[3] = oral 3.0 mL·kg^−1 Panax notoginseng extract
[4] = oral 3.0 mL·kg^−1 Panax notoginseng extract combined with Borneol

CC(C)=CCC[C@](C)(O[C@@H]1O[C@H](CO)[C@@H](O)[C@H](O)[C@H]1O)[C@H]1CC[C@]2(C)[C@@H]1[C@H](O)C[C@@H]1[C@@]3(C)CC[C@H](O)C(C)(C)[C@@H]3[C@@H](O[C@@H]3O[C@H](CO)[C@@H](O)[C@H](O)[C@H]3O)C[C@]12C [GRg1, ginsenoside Rg1]
Cmax [1, 3]: 2360 ± 150 ng/mL | Tmax [1, 3]: 30 min | Cmax [1, 4]: 2870 ± 340 ng/mL | Tmax [1, 4]: 30 min | CL/F [1, 4]: 119 ± 40 mL/min/kg | half-life [1, 4]: 69.3 ± 10.7 min | CL/F [1, 3]: 123 ± 67 mL/min/kg | half-life [1, 3]: 69.3 ± 12 min | AUC(0-inf) [1, 3]: 10900 ng·h/mL | AUC(0-t) [1, 3]: 8250 ng·h/mL | AUC(0-inf) [1, 4]: 27900 ng·h/mL | AUC(0-t) [1, 4]: 9090 ng·h/mL | K 10 [1, 3]: 0.005 ± 0.001 min⁻¹ | K 12 [1, 3]: 0.011 ± 0.003 min⁻¹ | K 21 [1, 3]: 0.012 ± 0.003 min⁻¹ | K a [1, 3]: 0.039 ± 0.004 min⁻¹ | T lag [1, 3]: 0 ± 0 min | V/F [1, 3]: 24.5 ± 4.5 L/kg | t 1/2Ka [1, 3]: 17.8 ± 2.4 min | t 1/2α [1, 3]: 38.5 ± 2.5 min | α [1, 3]: 0.018 ± 0.005 min⁻¹ | β [1, 3]: 0.010 ± 0.007 min⁻¹ | K 10 [1, 4]: 0.003 ± 0.00 min⁻¹ | K 12 [1, 4]: 0.025 ± 0.005** min^−1 | K 21 [1, 4]: 0.013 ± 0.001 min⁻¹ | K a [1, 4]: 0.051 ± 0.010* min^−1 | T lag [1, 4]: 1.25 ± 0.34 min | V/F [1, 4]: 35.9 ± 8.7 L/kg | t 1/2Ka [1, 4]: 13.5 ± 4.6 min | t 1/2α [1, 4]: 22.3 ± 3.1 min | α [1, 4]: 0.031 ± 0.011 min⁻¹ | β [1, 4]: 0.010 ± 0.001 min⁻¹ | Kp at 1 h ([2]; brain, peak levels at 1.0 h, read-out: level in brain, fold higher than the plasma concentrations): 11.8 | concentration at 0.5 h ([2]; brain, 3 mL·kg^−1, 0.5 h, oral Panax notoginseng with Borneol, read-out: Concentration in brain): 20600 ± 1360 ng/g | concentration at 0.5 h ([2]; brain, 3 mL·kg^−1, 0.5 h, oral Panax notoginseng, read-out: Concentration in brain): 750 ± 110 ng/g | concentration at 1 h ([2]; brain, 3 mL·kg^−1, 1.0 h, oral Panax notoginseng, read-out: Concentration in brain): 910 ± 890 ng/g | concentration at 3 h ([2]; brain, oral Panax notoginseng with Borneol, read-out: Concentration in brain): 17900 ± 2600 ng/g | concentration at 3 h ([2]; brain, oral Panax notoginseng, read-out: Concentration in brain): 570 ± 200 ng/g | concentration at 1 h ([2]; brain, 1.0 h, oral Panax notoginseng with Borneol, read-out: Concentration in brain): 25700 ± 2690 ng/g | Kp at 1 h ([2]; heart, peak levels at 1.0 h, read-out: level in heart, fold higher than the plasma concentrations): 12.4 | concentration at 0.5 h ([2]; heart, 3 mL·kg^−1, 0.5 h, oral Panax notoginseng with Borneol, read-out: Concentration in heart): 22600 ± 360 ng/g | concentration at 0.5 h ([2]; heart, 3 mL·kg^−1, 0.5 h, oral Panax notoginseng, read-out: Concentration in heart): 2210 ± 760 ng/g | concentration at 1 h ([2]; heart, 3 mL·kg^−1, 1.0 h, oral Panax notoginseng, read-out: Concentration in heart): 2940 ± 240 ng/g | concentration at 3 h ([2]; heart, oral Panax notoginseng with Borneol, read-out: Concentration in heart): 19100 ± 1160 ng/g | concentration at 3 h ([2]; heart, oral Panax notoginseng, read-out: Concentration in heart): 1530 ± 450 ng/g | concentration at 1 h ([2]; heart, 1.0 h, oral Panax notoginseng with Borneol, read-out: Concentration in heart): 27000 ± 310 ng/g | Kp at 1 h ([2]; kidney, at 1.0 h, read-out: level in kidney, fold higher than the plasma concentrations): 7.77 | concentration at 0.5 h ([2]; kidney, 3 mL·kg^−1, 0.5 h, oral Panax notoginseng with Borneol, read-out: Concentration in kidney): 27540 ± 170 ng/g | concentration at 0.5 h ([2]; kidney, 3 mL·kg^−1, 0.5 h, oral Panax notoginseng, read-out: Concentration in kidney): 4050 ± 260 ng/g | concentration at 1 h ([2]; kidney, 3 mL·kg^−1, 1.0 h, oral Panax notoginseng, read-out: Concentration in kidney): 3670 ± 380 ng/g | concentration at 3 h ([2]; kidney, oral Panax notoginseng with Borneol, read-out: Concentration in kidney): 10200 ± 2770 ng/g | concentration at 3 h ([2]; kidney, oral Panax notoginseng, read-out: Concentration in kidney): 3030 ± 230 ng/g | concentration at 1 h ([2]; kidney, 1.0 h, oral Panax notoginseng with Borneol, read-out: Concentration in kidney): 16900 ± 810 ng/g | Kp at 1 h ([2]; liver, peak levels at 1.0 h, read-out: level in liver, fold higher than the plasma concentrations): 27.1 | concentration at 0.5 h ([2]; liver, 3 mL·kg^−1, 0.5 h, oral Panax notoginseng with Borneol, read-out: Concentration in liver): 50100 ± 1950 ng/g | concentration at 0.5 h ([2]; liver, 3 mL·kg^−1, 0.5 h, oral Panax notoginseng, read-out: Concentration in liver): 8480 ± 530 ng/g | concentration at 1 h ([2]; liver, 3 mL·kg^−1, 1.0 h, oral Panax notoginseng, read-out: Concentration in liver): 8850 ± 510 ng/g | concentration at 3 h ([2]; liver, oral Panax notoginseng with Borneol, read-out: Concentration in liver): 37800 ± 3430 ng/g | concentration at 3 h ([2]; liver, oral Panax notoginseng, read-out: Concentration in liver): 6180 ± 590 ng/g | concentration at 1 h ([2]; liver, 1.0 h, oral Panax notoginseng with Borneol, read-out: Concentration in liver): 59000 ± 3740 ng/g | Kp at 1 h ([2]; lung, peak levels at 1.0 h, read-out: level in lung, fold higher than the plasma concentrations): 8.17 | concentration at 0.5 h ([2]; lung, 3 mL·kg^−1, 0.5 h, oral Panax notoginseng with Borneol, read-out: Concentration in lung): 15100 ± 3240 ng/g | concentration at 0.5 h ([2]; lung, 3 mL·kg^−1, 0.5 h, oral Panax notoginseng, read-out: Concentration in lung): 14300 ± 430 ng/g | concentration at 1 h ([2]; lung, 3 mL·kg^−1, 1.0 h, oral Panax notoginseng, read-out: Concentration in lung): 15300 ± 640 ng/g | concentration at 3 h ([2]; lung, oral Panax notoginseng with Borneol, read-out: Concentration in lung): 12300 ± 1460 ng/g | concentration at 3 h ([2]; lung, oral Panax notoginseng, read-out: Concentration in lung): 11900 ± 710 ng/g | concentration at 1 h ([2]; lung, 1.0 h, oral Panax notoginseng with Borneol, read-out: Concentration in lung): 17800 ± 1250 ng/g | concentration at 0.5 h ([2]; plasma, 3 mL·kg^−1, 0.5 h, oral Panax notoginseng, read-out: Concentration in plasma): 1970 ± 160 ng/mL | concentration at 1 h ([2]; plasma, 3 mL·kg^−1, 1.0 h, oral Panax notoginseng, read-out: Concentration in plasma): 1990 ± 60 ng/mL | concentration at 3 h ([2]; plasma, oral Panax notoginseng with Borneol, read-out: Concentration in plasma): 920 ± 10 ng/mL | concentration at 3 h ([2]; plasma, oral Panax notoginseng, read-out: Concentration in plasma): 980 ± 10 ng/mL | concentration at 0.5 h ([2]; plasma, 0.5 h, oral Panax notoginseng with Borneol, read-out: Concentration in plasma): 2870 ± 60 ng/mL | concentration at 1 h ([2]; plasma, 1.0 h, oral Panax notoginseng with Borneol, read-out: Concentration in plasma): 2180 ± 90 ng/mL
